# Reference: PubChem BioAssay (NCI)
# “And” between values parts separate entries of the source, which are not always exact repeats. Identical values can stand only once.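 A five-concentration, 48-hour dose response in 96-well plates underlies each endpoint, interpolated linearly between surrounding concentrations. Here, GI50 denotes the concentration required for 50% inhibition of growth. TGI denotes the concentration required for complete inhibition of growth.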
# How the values were obtained:
# Assay in all cases: NCI-60 cell line screen, 48 h
# [1] = test system: U251 CNS
# [2] = test system: HL-60(TB) leukemia
# [3] = test system: TK-10 renal
# [4] = test system: SK-MEL-28 melanoma
# [5] = test system: OVCAR-8 ovarian
# [6] = test system: HCT-116 colon
# [7] = test system: RXF 393 renal
# [8] = test system: COLO 205 colon
# [9] = test system: M14 melanoma
# [10] = test system: KM12 colon
# [11] = test system: K-562 leukemia
SMILES,TGI [1],TGI [2],TGI [3],TGI [4],TGI [5],TGI [6],TGI [7],TGI [8],TGI [9],TGI [10],TGI [11],GI50 [6],GI50 [8],GI50 [10],GI50 [1],GI50 [3],GI50 [5],GI50 [7],GI50 [9],GI50 [4]
COc1cc2c(cc1OC)-c1cc3cc(OC)c(OC)cc3c(C)[n+]1CC2 (tested in a mixture with another compound),> 100 µM,> 100 µM,> 100 µM,> 100 µM,> 100 µM,> 100 µM,> 100 µM,> 100 µM,> 100 µM,> 100 µM,,,,,,,,,,
COc1cccc2c1C(=O)c1c(O)c3c(c(O)c1C2=O)CC(O)(C(C)=O)CC3OC1OC(COC(C)=O)C(OC(C)=O)C(OC(C)=O)C1OC(C)=O (stereo unspecified),27.5 µM,> 100 µM,61.8 µM,> 100 µM,37.2 µM,> 100 µM,7.25 µM,> 100 µM,> 100 µM,> 100 µM,> 100 µM,,,,,,,,,
Oc1ccccc1CNCc1ccccc1O,> 100 µM,> 100 µM,> 100 µM,> 100 µM,> 100 µM,> 100 µM,> 100 µM,> 100 µM,> 100 µM,> 100 µM,> 100 µM,,,,,,,,,
O=C(N/N=C/c1cc(Cl)cc(Cl)c1[O-])c1ccccc1O.O=C(N/N=C/c1cc(Cl)cc(Cl)c1[O-])c1ccccc1O.[Cu+2],1.34 µM,0.512 µM,1.65 µM,8.79 µM,1.08 µM,0.597 µM,0.766 µM,0.348 µM,0.964 µM,1.59 µM,0.545 µM,0.255 µM,0.186 µM,0.442 µM,,,,,,
O=C(N/N=C/c1cc(Cl)cc(Cl)c1[O-])c1ccccc1O.O=C(N/N=C/c1cc(Cl)cc(Cl)c1[O-])c1ccccc1O.[Fe+2],22.6 µM,16.3 µM,> 100 µM,40.6 µM,34.3 µM,72.7 µM,28.8 µM,,34.7 µM,41.8 µM,> 100 µM,11.4 µM,,15.5 µM,,,,,,
CCN(CC)CCCNC(=O)c1ccccc1Nc1c(Cl)cccc1Cl,,12.5 µM,23.7 µM,9.51 µM,31.6 µM,23.6 µM,23 µM,28 µM,7.86 µM,,23 µM,,,,,,,,,
NCCNc1ccc(NCCN)c2c1C(=O)c1c(O)ccc(O)c1C2=O,0.845 µM and 0.137 µM,,3.64 µM and 1.4 µM,2.28 µM and 2.15 µM,0.466 µM and 0.353 µM,0.52 µM and 0.446 µM,0.387 µM and 0.679 µM,2.36 µM and 1.19 µM,1.27 µM and 1.32 µM,1.24 µM and 0.731 µM,0.14 µM,0.0343 µM,0.157 µM,0.105 µM,0.0238 µM,0.289 µM,0.02 µM,0.179 µM,0.0324 µM,
Cn1cc(-c2csc(-c3cn(CCCN4CCCCC4)c4ccc(Br)cc34)n2)c2cccnc21,,,3.16 µM,3.2 µM,,,3.19 µM,,,3.54 µM,,,,1.89 µM,,1.69 µM,,1.64 µM,,1.71 µM
O=[N+]([O-])c1cc(C(F)(F)F)cc2c1SC1=Nc3ccccc3CN12,> 100 µM,> 100 µM,,> 100 µM,> 100 µM,> 100 µM,> 100 µM,> 100 µM,,> 100 µM,> 100 µM,,,,,,,,,
CC(=O)C(C(=O)C(=O)Nc1cc(Cl)c(Cl)cc1Cl)c1csc(N)n1 (stereo unspecified),> 100 µM,> 100 µM,> 100 µM,> 100 µM,> 100 µM,> 100 µM,> 100 µM,> 100 µM,> 100 µM,> 100 µM,> 100 µM,,,,,,,,,
O=c1[nH]c(Br)nc2n[nH]nc12,> 100 µM,> 100 µM,> 100 µM,,> 100 µM,> 100 µM,> 100 µM,> 100 µM,> 100 µM,> 100 µM,> 100 µM,,,,,,,,,
O=C(N/N=C/c1cc(Cl)cc(Cl)c1[OH2+])c1ccncc1.O=S(=O)([O-])[O-].[Fe+2],,2.09 µM,56 µM,> 100 µM,> 100 µM,29.6 µM,82.1 µM,40.5 µM,41.1 µM,29.4 µM,51.4 µM,,,,,,,,,
C[N+]1(C)C/C(=C\C=C\c2ccccc2)C(=O)/C(=C/C=C/c2ccccc2)C1,19.2 µM,4.13 µM,> 67.1 µM,17 µM,53.1 µM,28.9 µM,> 61.1 µM,11.8 µM,39.1 µM,10.3 µM,36 µM,,,,,,,,,
Nc1n[nH]c(N)n1,> 10000 µM,7060 µM,> 10000 µM,> 10000 µM,> 10000 µM,> 10000 µM,> 10000 µM,9990 µM,> 10000 µM,> 10000 µM,> 10000 µM,,,,,,,,,
CCCCCC1CC(C(C)=O)CN1c1ccc(F)cc1 (stereo unspecified),> 100 µM,> 10 µM,> 100 µM,> 100 µM,> 100 µM,> 100 µM,> 100 µM,> 100 µM,> 100 µM,> 100 µM,,,,,,,,,,
Oc1c(Cl)c(Cl)c(O)c(-c2cnc(-c3ncc(-c4c(O)c(Cl)c(Cl)c(O)c4Cl)s3)s2)c1Cl,48.7 µM,> 100 µM,70.1 µM,75.6 µM,52.7 µM,42 µM,43.8 µM,97.2 µM,47.2 µM,> 100 µM,> 100 µM,,,,,,,,,
CC(=O)OC1(C)CC(C)C(=O)C(C(O)CC2CC(=O)NC(=O)C2)C1 (stereo unspecified),21.3 µM,,0.164 µM,0.134 µM and 0.688 µM,0.965 µM and 0.406 µM,,0.0899 µM,0.18 µM and 0.0404 µM,0.172 µM and 0.0421 µM,0.164 µM and 0.327 µM,0.0322 µM,,,,,0.0117 µM,,,,
